Measurements taken from PubChem BioAssay (NCI).
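Interpolation was linear, between the two tested concentrations surrounding the appropriate level; five concentrations were tested over 48 hours in 96-well plates. GI50 is the concentration that inhibits growth by half. TGI denotes the concentration required for complete inhibition of growth.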

Columns and labels:
Assay in all cases: DTP human tumour cell line panel, 48 h
A549 NSCLC = system: A549 NSCLC
DU-145 prostate = system: DU-145 prostate
HS 578T breast = system: HS 578T breast
NCI-H460 lung = system: NCI-H460 lung
NCI/ADR-RES ovarian = system: NCI/ADR-RES ovarian
PC-3 prostate = system: PC-3 prostate
T-47D breast = system: T-47D breast
TK-10 renal = system: TK-10 renal
U251 CNS = system: U251 CNS
UO-31 renal = system: UO-31 renal

With `COc1ccc(CC(C)NCC(O)c2ccc(O)c(NC=O)c2)cc1` (centres undefined) the TGI (A549 NSCLC) was > 100 µM, the TGI (DU-145 prostate) was > 100 µM and the TGI (HS 578T breast) was > 100 µM. The TGI (NCI-H460 lung) was > 100 µM, the TGI (NCI/ADR-RES ovarian) was > 100 µM and the TGI (PC-3 prostate) was > 100 µM. The TGI (T-47D breast) was > 100 µM, the TGI (TK-10 renal) was > 100 µM and the TGI (U251 CNS) was > 100 µM. The TGI (UO-31 renal) was > 100 µM.
With `CCOc1ccc2c(c1)[n+]([O-])c(C(N)=O)c(N)[n+]2[O-]` the TGI (A549 NSCLC) was > 100 µM, the TGI (NCI-H460 lung) was > 100 µM and the TGI (U251 CNS) was > 100 µM. The TGI (UO-31 renal) was > 100 µM.
`[Cu].c1ccc2c(c1)C1=NC2=NC2=NC(=NC3=NC(=NC4=NC(=N1)c1ccccc14)c1ccccc13)c1ccccc12` was tested, and the GI50 (A549 NSCLC) was > 100 µM, the TGI (A549 NSCLC) was > 100 µM and the GI50 (DU-145 prostate) was > 100 µM. The TGI (DU-145 prostate) was > 100 µM, the GI50 (HS 578T breast) was > 100 µM and the TGI (HS 578T breast) was > 100 µM. For the same compound, the GI50 (NCI-H460 lung) was > 100 µM, the TGI (NCI-H460 lung) was > 100 µM and the GI50 (NCI/ADR-RES ovarian) was > 100 µM. For the same compound, the TGI (NCI/ADR-RES ovarian) was > 100 µM, the GI50 (PC-3 prostate) was > 100 µM and the TGI (PC-3 prostate) was > 100 µM. For the same compound, the GI50 (T-47D breast) was > 100 µM, the TGI (T-47D breast) was > 100 µM and the GI50 (TK-10 renal) was > 100 µM. The TGI (TK-10 renal) was > 100 µM, the GI50 (U251 CNS) was > 100 µM and the TGI (U251 CNS) was > 100 µM. For the same compound, the GI50 (UO-31 renal) was > 100 µM and the TGI (UO-31 renal) was > 100 µM.
`CCn1c(-c2nonc2N)nc2cnc(Oc3cccc(NC(=O)c4ccc(OCCN5CCOCC5)cc4)c3)cc21` was tested, and the GI50 (A549 NSCLC) was 2.52 µM, the TGI (A549 NSCLC) was > 25 µM and the GI50 (DU-145 prostate) was 5.43 µM. The TGI (DU-145 prostate) was > 25 µM, the GI50 (HS 578T breast) was 0.0149 µM and the TGI (HS 578T breast) was 8.26 µM. For the same compound, the GI50 (NCI-H460 lung) was 2.3 µM, the TGI (NCI-H460 lung) was > 25 µM and the GI50 (NCI/ADR-RES ovarian) was 6.1 µM. The TGI (NCI/ADR-RES ovarian) was > 25 µM, the GI50 (PC-3 prostate) was 2.88 µM and the TGI (PC-3 prostate) was > 25 µM. The GI50 (T-47D breast) was 1.94 µM, the TGI (T-47D breast) was > 25 µM and the GI50 (TK-10 renal) was 0.564 µM. For the same compound, the TGI (TK-10 renal) was 13.7 µM, the GI50 (U251 CNS) was 7.17 µM and the TGI (U251 CNS) was > 25 µM. The GI50 (UO-31 renal) was 0.0089 µM and the TGI (UO-31 renal) was 5.07 µM.
For `CC(C)N1CCOC(c2ccc(O)c(O)c2)C1` (centres undefined), the TGI (A549 NSCLC) was > 100 µM, the TGI (NCI-H460 lung) was > 100 µM and the TGI (TK-10 renal) was > 100 µM. The TGI (UO-31 renal) was > 100 µM.
In the case of `O=C(O)c1c2c(c(O)c3c1CN(C1CCCCC1)CO3)OCN(C1CCCCC1)C2`, the TGI (A549 NSCLC) was > 100 µM, the TGI (DU-145 prostate) was > 100 µM and the TGI (HS 578T breast) was > 100 µM. The TGI (NCI-H460 lung) was 35.1 µM, the TGI (NCI/ADR-RES ovarian) was > 100 µM and the TGI (PC-3 prostate) was > 100 µM. For the same compound, the TGI (T-47D breast) was > 100 µM, the TGI (TK-10 renal) was > 100 µM and the TGI (U251 CNS) was > 100 µM. For the same compound, the TGI (UO-31 renal) was > 100 µM.
`Cc1cccc(-c2nc(=S)[nH][nH]2)c1` was tested, and the TGI (A549 NSCLC) was > 100 µM, the TGI (NCI-H460 lung) was > 100 µM and the TGI (TK-10 renal) was > 100 µM. For the same compound, the TGI (U251 CNS) was > 100 µM and the TGI (UO-31 renal) was > 100 µM.
In the case of `O=C(O)CN(CCN(CC(=O)O)CC(=O)O)CCN(CC(=O)O)CC(=O)O`, the GI50 (A549 NSCLC) was 1.62 µM, the TGI (A549 NSCLC) was 3.5 µM and the GI50 (DU-145 prostate) was 2.94 µM. It also gave a TGI (DU-145 prostate) of 8.82 µM, a GI50 (HS 578T breast) of 2.09 µM and a TGI (HS 578T breast) of 56.7 µM. The GI50 (NCI-H460 lung) was 2.49 µM, the TGI (NCI-H460 lung) was 7.09 µM and the GI50 (NCI/ADR-RES ovarian) was 3.1 µM. For the same compound, the TGI (NCI/ADR-RES ovarian) was 13.7 µM, the GI50 (PC-3 prostate) was 5.46 µM and the TGI (PC-3 prostate) was > 100 µM. It also gave a GI50 (T-47D breast) of 3.74 µM, a TGI (T-47D breast) of 14.5 µM and a GI50 (TK-10 renal) of 2.87 µM. For the same compound, the TGI (TK-10 renal) was 7.52 µM, the GI50 (U251 CNS) was 4.14 µM and the TGI (U251 CNS) was 21.2 µM.
`Nc1nc(N)c2cc(S(=O)(=O)c3cccc(C(F)(F)F)c3)ccc2n1` was tested, and the GI50 (A549 NSCLC) was 0.816 µM, the TGI (A549 NSCLC) was > 100 µM and the GI50 (DU-145 prostate) was 6.35 µM. For the same compound, the TGI (DU-145 prostate) was > 100 µM, the GI50 (HS 578T breast) was 4.55 µM and the TGI (HS 578T breast) was 49.7 µM. For the same compound, the GI50 (NCI-H460 lung) was 0.575 µM, the TGI (NCI-H460 lung) was > 100 µM and the GI50 (NCI/ADR-RES ovarian) was 7.79 µM. The TGI (NCI/ADR-RES ovarian) was > 100 µM, the GI50 (PC-3 prostate) was 3.36 µM and the TGI (PC-3 prostate) was > 100 µM. For the same compound, the GI50 (TK-10 renal) was 7.78 µM, the TGI (TK-10 renal) was > 100 µM and the GI50 (U251 CNS) was 3.52 µM. The TGI (U251 CNS) was > 100 µM, the GI50 (UO-31 renal) was 4.96 µM and the TGI (UO-31 renal) was > 100 µM.
